“Also recorded” adds a separate entry of the source.
Legend:
[1] = target: T1, TLR4 (Mus musculus, UniProt Q9QUK6); assay: LPS challenge of drug-eluting mouse islets, IL-6 expression (Example 15); assay type: cell-based; settings: for protection from LPS challenge (IL-6 expression): 24 h after modification or treatment
T1 construct: from tissue; host or cells: pancreatic islets of C57BL/6 mice
T1 sequence (Q9QUK6 26-835): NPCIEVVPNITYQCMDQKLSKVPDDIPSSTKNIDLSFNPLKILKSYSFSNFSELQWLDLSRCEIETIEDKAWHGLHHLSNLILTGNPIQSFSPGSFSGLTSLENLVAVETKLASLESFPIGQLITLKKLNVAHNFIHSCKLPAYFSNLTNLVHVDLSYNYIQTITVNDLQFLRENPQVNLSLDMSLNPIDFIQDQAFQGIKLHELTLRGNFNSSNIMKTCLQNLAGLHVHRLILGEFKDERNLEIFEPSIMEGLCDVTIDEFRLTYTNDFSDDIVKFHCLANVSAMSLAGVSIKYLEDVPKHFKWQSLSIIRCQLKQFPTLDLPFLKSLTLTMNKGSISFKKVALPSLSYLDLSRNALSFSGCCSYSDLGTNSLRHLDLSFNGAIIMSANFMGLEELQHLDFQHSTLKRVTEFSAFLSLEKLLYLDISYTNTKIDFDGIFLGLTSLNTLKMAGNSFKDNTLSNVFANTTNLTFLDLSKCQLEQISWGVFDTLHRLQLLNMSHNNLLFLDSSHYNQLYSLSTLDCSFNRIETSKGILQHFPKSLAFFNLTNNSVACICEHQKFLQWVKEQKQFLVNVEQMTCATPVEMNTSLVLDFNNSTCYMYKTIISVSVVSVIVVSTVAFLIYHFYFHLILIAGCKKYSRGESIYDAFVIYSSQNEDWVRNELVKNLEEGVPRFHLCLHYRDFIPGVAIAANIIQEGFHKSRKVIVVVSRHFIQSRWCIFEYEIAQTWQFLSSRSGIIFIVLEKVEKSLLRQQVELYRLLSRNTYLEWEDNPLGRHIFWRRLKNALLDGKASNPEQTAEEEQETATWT
Procedure: (§1) In order to study the function and efficacy of the cleavable prodrug, in vitro experiments were performed challenging mouse islets with LPS at different times post-modification. […] HEK Blue hTLR4 reporter cells were treated with either free TAK-242 or the TAK-PhSO2-Linker prodrug, followed by LPS challenge.
(§2) Data represented as means±SEM (n=3 per group). Statistical significance determined by two-tailed unpaired t test. n.s. means not significant.

[2] = target: T1, TLR4; assay: LPS challenge of mouse islets, RT-PCR gene expression and multiplex cytokine analysis; assay type: cell-based, C57BL/6 mice
Procedure: To initially investigate whether free TAK-242 can protect islets from TLR4-mediated inflammation, inflammatory responses in islets from C57BL/6 mice challenged with the canonical TLR4 ligand lipopolysaccharide (LPS) were examined. As discussed in detail below, islets were treated with TAK-242 (3 μM for 30 min) before a 24-h challenge with a high dose of LPS (2 μg/mL). After 24 h, culture media was analyzed by multiplex assay, and mRNA was isolated from islet cells for analysis by real-time polymerase chain reaction (RT-PCR).
Materials and Methods. After overnight culture, islets were washed in Dulbecco's PBS (Caisson Labs, Smithfield, Utah, USA) before treatment with TAK-242 (3 μM, 30 min; MedchemExpress) and 2 μg/mL LPS-EB (Ultrapure from Escherichia coli O111:B4; Invivogen) for 24 h at 37° C. and 5% CO2. Islets were washed once with cold Dulbecco's PBS immediately after treatment, and total RNA was isolated from samples using TRIzol […] and converted to cDNA using a high capacity cDNA reverse transcription kit (Applied Biosystems) following manufacturer protocols. Quantitative expression of genes of interest was determined using RT2 SYBR Green qPCR master mix (Qiagen) on a Bio-Rad CFX Connect (Bio-Rad) with the following program: 95° C., 10 min and 40 cycles of 95° C., 15 sec, 60° C., 1 min. Primers for quantitative real-time PCR analysis were purchased from commercially available stock from Integrated DNA Technologies (Coralville). Relative gene expression was calculated using the 2-ΔΔCT method normalized to 18S mRNA. Cytokines from assay culture media were analyzed using Milliplex MCYTOMAG-70K Assay (EMD Millipore). Samples were prepared following manufacturer guidelines. Analysis was performed after overnight incubation at 4° C. on a Luminex 200 (Luminex). Samples were assayed in triplicate and analyzed in triplicate for cDNA or in duplicate for multiplex assay.

[3] = target: T1, TLR4; assay: rHMGB1 challenge of mouse islets, gene expression analysis; assay type: cell-based, C57BL/6 mice; settings: 1 μg/mL rHMGB1, 4 h, TAK-242 pretreatment
Procedure: Similar results were observed when islets were challenged with high-mobility group box 1 (HMGB1; FIG. 26), an endogenous damage-associated molecular pattern (DAMP) known to elicit acute inflammation through TLR4. […] Islets from C57BL/6 mice were challenged with 1 μg/mL rHMGB1 with or without TAK-242 pretreatment. After 4 h, total RNA was isolated from the islets for gene expression analysis. The proinflammatory genes (A) CXCL10 and (B) CCL2 were examined in the samples. Data represented as means±SEM. *P<0.05 (n=3 for all samples, unpaired two-tailed t test).

[4] = tested on: MIN6 cells; assay: MTT viability assay in MIN6 beta cells; assay type: cell-based; settings: days 1, 3 and 7, effective concentrations
Procedure: MIN6 cells were seeded in a 96-well plate at 15,000 cells per well in RPMI. After overnight culture, culture media was replaced with media containing the indicated TAK-242 concentrations. The control (0 nM TAK-242) contained 0.1% DMSO. Media was changed on day 3. On days 1, 3, and 7, an MTT viability assay was performed. Data are represented as means±SEM. P>0.05 for all samples (one-way ANOVA with Tukey's multiple-comparisons test).

[5] = target: T1, TLR4; assay: Extended protection of modified islets, IL-6 mRNA after LPS challenge (Example 5); assay type: cell-based, murine; settings: LPS 2 ug/mL 4 hrs, 24 hrs after treatment or islet modification; unprotected islets ~59-fold
Procedure: Compared to free TAK-242 pre-treatment, the TAK-Linker compound covalently attached to the islet surface provides extended protection.
First, islets were modified with either TAK-Linker or TAK-HexOH (1 hr NHS-DBCO followed by 1 hr TAK compounds), or treated with free TAK-242 (3 uM, 30 min @37° C.). All islets were rinsed with culture media (RPMI 1640, 10% FBS) prior to culturing. After overnight culture, the treated groups were challenged with LPS (2 ug/mL, 4 hrs @ 37° C.), a TLR4-specific agonist, and compared to unprotected islets (LPS) and unprotected/untreated control islets.
Total RNA was isolated from the islets for mRNA analysis. The gene expression of cytokine IL-6 was used for evaluation due to its key role in acute inflammation.

[6] = target: T2, hTLR4 (Homo sapiens, UniProt O00206); assay: HEK Blue hTLR4 reporter cells, TLR4-mediated NFkB upregulation, colorimetric assay; assay type: cell-based; settings: brief treatment, unconjugated compound
T2 construct: expressed in transfected cells; host or cells: HEK Blue hTLR4 reporter cells
T2 sequence (O00206 24-839): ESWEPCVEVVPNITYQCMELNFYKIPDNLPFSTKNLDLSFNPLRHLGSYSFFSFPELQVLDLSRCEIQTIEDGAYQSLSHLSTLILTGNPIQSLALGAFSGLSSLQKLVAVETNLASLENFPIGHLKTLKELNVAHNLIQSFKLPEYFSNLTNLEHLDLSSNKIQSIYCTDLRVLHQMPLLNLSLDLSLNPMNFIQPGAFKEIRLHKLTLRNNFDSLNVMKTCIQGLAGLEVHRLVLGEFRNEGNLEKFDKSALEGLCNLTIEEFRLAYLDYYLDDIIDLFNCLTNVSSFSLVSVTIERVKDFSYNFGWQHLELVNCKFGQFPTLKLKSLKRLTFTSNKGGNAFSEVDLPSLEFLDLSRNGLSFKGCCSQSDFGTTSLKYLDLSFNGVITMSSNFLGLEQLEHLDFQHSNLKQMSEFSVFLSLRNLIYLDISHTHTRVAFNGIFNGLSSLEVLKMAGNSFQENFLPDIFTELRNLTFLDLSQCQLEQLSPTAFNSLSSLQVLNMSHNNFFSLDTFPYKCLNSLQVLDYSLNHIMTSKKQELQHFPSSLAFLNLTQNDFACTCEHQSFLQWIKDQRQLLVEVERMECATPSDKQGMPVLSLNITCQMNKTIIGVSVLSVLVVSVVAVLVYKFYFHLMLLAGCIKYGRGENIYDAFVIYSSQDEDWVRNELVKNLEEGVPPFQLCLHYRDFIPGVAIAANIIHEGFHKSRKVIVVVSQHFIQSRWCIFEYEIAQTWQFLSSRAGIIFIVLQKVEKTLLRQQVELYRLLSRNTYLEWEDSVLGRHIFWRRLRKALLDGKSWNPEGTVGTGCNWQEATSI
Procedure: as §1, §2

[7] = tested on: streptozotocin-induced diabetes; assay: Syngeneic islet transplant in streptozotocin-induced diabetic mice; assay type: in vivo, C57BL/6 mice
Procedure: With the promising in vitro results described above, islet transplantation experiments were performed in a syngeneic wild-type C57BL/6 streptozotocin-induced diabetes model. Recipient male C57BL/6 mice 6-7 weeks old were made diabetic by a single intraperitoneal injection of streptozotocin (200 mg/kg; Sigma-Aldrich). Diabetic mice are defined as having a nonfasting blood glucose >400 mg/dL for 2 consecutive days. Prior to transplantation, islets were untreated, pretreated with 3 μM TAK-242, or modified with TAK-PhSO2-Linker as described above. Diabetic C57BL/6 mice were anesthetized under isofluorane, and a field between the rib cage and pelvis on the left side was disinfected by 1% providone iodine scrub and 70% ethanol. A minimal incision (˜8 to 10 mm) into the peritoneum was made to expose the kidney, and a small cut (˜2 mm) was made in the kidney capsule using a 30G needle. Then a flame-blunted glass pipette tip was inserted into the kidney capsule through the cut to create a pocket between the renal cortex and capsule. Islets were then injected into the pocket via PE-50 polyethylene tubing (Becton Dickinson) connected to a 1 mL syringe filled with RPMI 1640 driven by an NE-300 syringe pump (New Era Pump Systems). At the completion of islet infusion, the incision was closed with 4-0 violet monofilament (Ethicon) via continuous nonlocking sutures. After closing, mice received a 0.1 mg/kg bolus of buprenorphine subcutaneously near the incision. Engraftment success was measured by nonfasting blood glucose measurements 5 times a week over a 4-week period with a Breeze 2 Glucose Monitor (Bayer). Mice were considered cured on the first day of two consecutive glucose measurements below 200 mg/dL (˜11 mM).
Diabetic mice were separated into untreated (n=4), TAK-242 (n=6), and TAK-PhO2-Linker (n=6) groups. A marginal dose of ˜100 islets was determined by titrating doses of TAK-242-treated islets. […] Diabetic C57BL/6 mice were transplanted with (FIG. 33A) 200, (FIG. 33B) 150, or (FIG. 33C) 100 TAK-242-treated islets. Blood glucose was monitored for 4 weeks before IPGTT on day 30 and at nephrectomy on day 35. […] This marginal dose was transplanted into the kidney subcapsular space in each group, and blood glucose was monitored for 4 weeks.

[8] = tested on: TLR4; settings: human and murine models; depending on cell type; read-out: TLR4 inhibition IC50; cited from earlier work
[9] = Linker prodrug stability and release kinetics in PBS by LC-MS; assay type: physicochemical; settings: phosphate-buffered saline; PBS pH 7.4, 37° C.; read-out: half-life of TAK-PhSO2-Linker (release of free TAK-242) (converted)
Procedure: The stability of the linker prodrug was explored in this example. The TAK-PhSO2-Linker compound was incubated in phosphate-buffered saline (PBS; pH 7.4) at 37° C., and the solution sampled over the course of several days. Liquid chromatography-mass spectrometry (LC-MS) was used to identify and quantitate the compounds released from this prodrug.

SMILES | protection against LPS-mediated inflammation (IL-6) ([1]; islet surfaces functionalized only, no prodrug) | CXCL10 gene expression ([2]; 3 μM TAK-242 pretreatment 30 min, 24 h after 2 μg/mL LPS, LPS alone 26-fold) | CCL2 gene expression ([2]; 3 μM TAK-242 pretreatment 30 min, 24 h after 2 μg/mL LPS, LPS alone 55-fold) | proinflammatory cytokines IL-6, CXCL1, CXCL10, CCL2, TNF-α in culture media ([2]; TAK-242 pretreatment, 24 h after LPS challenge, versus LPS alone) | CXCL10 and CCL2 gene expression after rHMGB1 challenge [3] | toxicity to beta cells (MTT viability) [4] | increase in IL-6 expression [5] | inhibition of TLR4-mediated NFkB upregulation after LPS challenge [6] | protection from LPS challenge (IL-6 expression) [1] | inhibition of LPS-mediated inflammation ([1]; immediately after treatment) | cure time and glycemic control, islet dose titration ([7]; 100 TAK-242-treated islets) | mean nonfasting blood glucose ([7]; 100 islets, 4 weeks) | mean time to cure ([7]; 100 islets, cured = two consecutive glucose measurements below 200 mg/dL) | cure time and glycemic control, islet dose titration ([7]; 200 and 150 TAK-242-treated islets) | IC50 [8] | half-life [9]
O=C(CCC(=O)N1Cc2ccccc2C#Cc2ccccc21)NCCOCCOCCOCCOCCC(=O)ON1C(=O)CCC1=O [NHS-PEG4-DBCO, dibenzocyclooctyne-PEG4-N-hydroxysuccinimidyl ester] | no protection against LPS-mediated inflammation | – | – | – | – | – | – | – | – | – | – | – | – | – | – | –
CCOC(=O)C1=CCCCC1S(=O)(=O)Nc1ccc(F)cc1Cl (stereo not shown) [TAK-242, ethyl 6-(N-(2-chloro-4-fluorophenyl)sulfamoyl)cyclohex-1-ene-1-carboxylate] | – | 0.91 fold | 1.01 fold | significantly lower levels of these cytokines | protection of mouse islets against rHMGB1-mediated TLR4 inflammation | negligible toxicity | ~32 fold | completely blocked LPS; also recorded: completely inhibited the upregulation of NFkB | beings to lose its effectiveness by 24 h; also recorded: provided protection from TLR4-mediated inflammation 24 hours post treatment | completely inhibit LPS-mediated inflammation | delayed cure time and exhibited significant average glycemic lability | demonstrated some control | 21.0 ± 4.9 days | quick cure times and good glycemic control | 1 to 33 nM | –
CCOC(=O)C1=CCCCC1S(=O)(=O)N(C(=O)OC(CCCCCN=[N+]=[N-])CS(=O)(=O)c1ccccc1)c1ccc(F)cc1Cl (stereo not shown) [TAK-PhSO2-Linker] | – | – | – | – | – | – | ~3 fold | negligible TLR4-antagonist activity; also recorded: provided no protection; also recorded: no significant protection | significantly protected from LPS challenge; also recorded: significantly better than that of free TAK-242 alone; also recorded: significantly protected against LPS-mediated inflammation | – | – | – | – | – | – | ~25 h

Source: patent publication US10814036B2, “Drug-eluting live tissue for transplantation” (BAYLOR UNIVERSITY, priority 2016, dated 2020)
